Legend:
[1] = tested on: Skin tissues from a donor; test: Lightness (L* value) of cultured human skin tissue with autophagy-regulating agent; assay type: cell-based; details: verapamil 10 μM, rapamycin 1 μM or HCQ 10 μM; cultured 8 days; colorimeter; FIG. 10
Experimental: Skin tissues were collected from a donor, and were then cultured in the presence or absence of an autophagy inducer verapamil (10 μM) or rapamycin (1 μM), or an autophagy inhibitor hydroxychloroquine (HCQ, 10 μM). After completion of the culture for 8 days, the lightness (L* value) of the cultured skin was measured with a colorimeter (Colorimeter; cyberDERM).

[2] = tested on: 3D-HSSs (three-dimensional human skin substitutes containing NHEK and NHEM); test: 3D-HSSs cultured with autophagy inducer or inhibitor (photographs, Western blotting); assay type: cell-based; details: HCQ 10 μM with endothelin-1 and SCF, 14 days
Experimental: Three-dimensional culture human skin models (3D-human skin substitutes; 3D-HSSs) were purchased from MatTek Co. (MEL-300A or B), and they were then maintained at 37° C. in 5% CO2 in EPI-100NMM-113 medium (MatTek Co.) according to a production manual included therewith.
3D-HSSs (three-dimensional human skin substitutes, reconstituted epidermal models containing NHEK and NHEM) were cultured together with an autophagy inducer verapamil (10 μM) or rapamycin (1 μM) for 14 days. The medium was exchanged with a fresh one every other day. After completion of the culture, Western blotting analysis was carried out on the culture, using a p62-specific antibody (MBL International) and an LC3-specific antibody (Cosmo Bio Co. Ltd. or MBL International) by the same procedures as those applied in Reference Example 1.
On the other hand, 3D-HSSs were cultured together with an autophagy inhibitor hydroxychloroquine (HCQ, 10 μM) in the presence of endothelin-1 and SCF for 14 days, and Western blotting analysis was then carried out on the culture.

| SMILES | lightness (L* value) of the cultured skin [1] | darkening of 3D-HSSs ([2]; FIG. 9C) | amount of p62 ([2]; FIG. 9D) |
| --- | --- | --- | --- |
| CCN(CCO)CCCC(C)Nc1ccnc2cc(Cl)ccc12 (stereo not shown) [hydroxychloroquine] | decreased | became darkened | increased |
| COc1ccc(CCN(C)CCCC(C#N)(c2ccc(OC)c(OC)c2)C(C)C)cc1OC (stereo not shown) [verapamil] | increased | – | – |

From US8927517B2, “Factors controlling skin and hair color” (Kao Corporation, priority 2012, dated 2015)
